Patent US10207993B2 (priority 2014, dated 2019)
Where “and” joins values, the source holds several entries; their conditions need not be identical. Identical values can stand only once. Like-named read-outs stand apart in the source and are kept apart here.

Key:
GPR109A = GPR109A (Homo sapiens, UniProt Q8TDS4); format: cell-based
H37Rv [1] = test: microbe, parasite or virus in culture; format: cell-based, M. tuberculosis; details: Mycobacterium tuberculosis, H37RV, THP-1, 90 h, read-out: H37Rv % Inhibition at 500 nM
JAL2287 [2] = format: cell-based, M. tuberculosis
MYC431 [3] = format: cell-based, M. tuberculosis
H37Rv [4] = format: cell-based, M. tuberculosis
H37Rv [5] = test: microbe, parasite or virus in culture; format: cell-based, M. tuberculosis; details: Mycobacterium tuberculosis, THP-1, 90 h
MYC431 [6] = test: microbe, parasite or virus in culture; format: cell-based, M. tuberculosis; details: Mycobacterium tuberculosis, THP-1, 90 h
JAL2287 [7] = test: microbe, parasite or virus in culture; format: cell-based, M. tuberculosis; details: Mycobacterium tuberculosis, THP-1, 90 h
MDR-M. tb (JAL2287) = tested on: MDR-M. tb (JAL2287); parameters: species or system M. tuberculosis; details: in vivo
[8] = tested on: drug susceptible M. tb (H37Rv); parameters: species or system M. tuberculosis; details: in vivo
[9] = Balb/C, mouse, in vivo, po, 10 mg/kg
in vivo [10] = details: Balb/C, mouse
in vivo [11] = details: Beagle, dog

Chain of GPR109A (Q8TDS4 whole entry): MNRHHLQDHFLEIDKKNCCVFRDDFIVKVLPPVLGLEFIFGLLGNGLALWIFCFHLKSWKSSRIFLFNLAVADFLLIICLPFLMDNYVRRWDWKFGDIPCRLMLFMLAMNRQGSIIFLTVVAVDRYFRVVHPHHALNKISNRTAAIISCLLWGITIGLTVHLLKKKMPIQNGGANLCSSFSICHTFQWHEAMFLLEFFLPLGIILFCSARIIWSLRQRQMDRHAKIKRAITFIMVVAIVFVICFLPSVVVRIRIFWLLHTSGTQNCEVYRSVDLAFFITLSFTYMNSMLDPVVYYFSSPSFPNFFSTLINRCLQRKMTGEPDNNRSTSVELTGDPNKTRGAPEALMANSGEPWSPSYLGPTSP

In the case of CC(O)CC(=O)O (stereo not shown) [Compound 3HBA, 3-hydroxybutyric acid], the “effect on intracellular cAMP levels” value (GPR109A) is reported as “reduces intracellular cAMP levels”.

With CO[C@@H](C(=O)N1CCOC[C@H]1C)c1ccccc1 [Compound 1075, (R)-2-Methoxy-1-((R)-3-methylmorpholino)-2-phenylethanone] the inhibition at 0.5 µM (H37Rv [1]) was 46%.

In the case of CO[C@@H](C(=O)N1CCO[C@H](C)[C@@H]1C)c1ccccc1 [Compound 1076, (R)-1-((2R,3S)-2,3-Dimethylmorpholino)-2-methoxy-2-phenylethanone], the inhibition at 0.5 µM (H37Rv [1]) is reported as 50%.

With CO[C@H](C(=O)N1CCOC[C@@H]1C)c1ccccc1 [Compound 1077, (S)-2-Methoxy-1-((S)-3-methylmorpholino)-2-phenylethanone] the inhibition at 0.5 µM (H37Rv [1]) was 52%.

In the case of CO[C@@H](C(=O)NC1CCNCC1)c1ccccc1 [Compound 1085, (R)-2-Methoxy-2-phenyl-N-(piperidin-4-yl)acetamide], the inhibition at 0.5 µM (H37Rv [1]) is reported as 93%, the “CFU/well (1 × 10^3) After treatment with 1085” value (shortened to “CFU/well”) (JAL2287 [2]) is reported as 6.33 ± 3.51 CFU/well (1 × 10^3) and the “CFU/well” value (MYC431 [3]) is reported as 6.00 ± 1.00 CFU/well (1 × 10^3). For the same compound, the “CFU/well” value (H37Rv [4]) was 8.66 ± 2.51 CFU/well (1 × 10^3), the EC50 (H37Rv [5]) was 0.5 nM and the EC50 (MYC431 [6]) was 0.1 nM. For the same compound, the EC50 (JAL2287 [7]) was 0.1 nM, the “% Reduction of CFU in lung” value (MDR-M. tb (JAL2287)) was 43.5% and 62.4% and 80.0% and the “% Reduction of CFU in spleen” value (MDR-M. tb (JAL2287)) was 96.6% and 98.3%. For the same compound, the “CFU/spleen (×10^3)” value (MDR-M. tb (JAL2287)) was 0.4 ×10^3 and 0.2 ×10^3, the “CFU/Lung (×10^5)” value [8] was 4.76 ×10^5 and the Cl [9] was 2 mL/min/kg. It also gave a Vd [9] of 0.13 L/kg, a bioavailability (in vivo [10]) of 47% and an AUC (in vivo [10]; iv, 1 mg/kg) of 1.73 µM·h. It also gave a Cmax (in vivo [10]; iv, 1 mg/kg) of 3.06 µM, a Tmax (in vivo [10]; iv, 1 mg/kg) of 0 h and a Vd (in vivo [10]; iv, 1 mg/kg) of 0.22 L/kg. The clearance (in vivo [10]; iv, 1 mg/kg) was 1.33 mL/min/kg, the half-life (in vivo [10]; iv, 1 mg/kg) was 1.9 h and the AUC (in vivo [10]; po, 10 mg/kg) was 8.17 µM·h. It also gave a Cmax (in vivo [10]; po, 10 mg/kg) of 11.2 µM, a Tmax (in vivo [10]; po, 10 mg/kg) of 0.2 h and a half-life (in vivo [10]; po, 10 mg/kg) of 2.8 h. For the same compound, the bioavailability (in vivo [11]) was 57%, the AUC(0-t) (in vivo [11]; iv, 0.3 mg/kg) was 3.44 µM·h and the Cmax (in vivo [11]; iv, 0.3 mg/kg) was 2.76 µM. It also gave a Tmax (in vivo [11]; iv, 0.3 mg/kg) of 0 h, a half-life (in vivo [11]; iv, 0.3 mg/kg) of 3 h and an AUC(0-t) (in vivo [11]; po, 3 mg/kg) of 19.6 µM·h. For the same compound, the Cmax (in vivo [11]; po, 3 mg/kg) was 3.77 µM, the Tmax (in vivo [11]; po, 3 mg/kg) was 1 h and the half-life (in vivo [11]; po, 3 mg/kg) was 2.5 h.
